Literature values, collected in paper PMC5516987, “Safety and pharmacodynamics of dalazatide, a Kv1.3 channel inhibitor, in the treatment of plaque psoriasis: A randomized phase 1b trial” (PLoS ONE, 2017).

How the values were obtained:
[1] = 4-AP and related compounds
Description: One potassium channel blocking drug that has been tested in humans is the nonselective potassium channel inhibitor, 4-aminopyridine (4-AP, fampridine, dalfampridine). Various formulations of 4-AP have been evaluated for their potential to increase nerve conduction and improve function in spinal cord injury, autoimmune diseases involving the nervous system, and diseases of nerve conduction. The most commonly reported adverse events are paresthesia (perioral and digital), nausea, dizziness, headache, and insomnia. Although infrequent, the most serious toxicity reported in patients treated ...

[2] = test system: viral and bacterial infections; conditions: chronically treated animals, versus vehicle
Description: Dalazatide (previously referred to as ShK-186 and SL5) is a 37-amino acid synthetic peptide that is a specific inhibitor of the voltage-gated Kv1.3 potassium channel. It is a derivative of ShK, which was originally isolated from the venom of the sea anemone Stichodactyla helianthus. Human T cells rely on two potassium channels, Kv1.3 and KCa3.1 to maintain the calcium signaling required for their activation and differentiation, by maintaining a balance between calcium influx and potassium efflux. Chronically activated memory T cells that rely on upregulation of Kv1.3 expression for ...

| Structure (SMILES) | Crossing of the blood-brain barrier [1] | Clearance of viral and bacterial infections [2] |
| --- | --- | --- |
| Nc1ccncc1 [4-AP, 4-aminopyridine] | readily cross the blood-brain barrier |  |
| C[C@@H]1C[C@H]2[C@@H]3CCC4=CC(=O)C=C[C@]4(C)[C@@]3(F)[C@@H](O)C[C@]2(C)[C@@]1(O)C(=O)CO [dexamethasone] |  | significantly delayed clearance rate |
